Assay results taken from the NIST ThermoML archive (doi:10.1021/je060271a).
Numbers after ± are expanded uncertainties.

Settings: 323.14 K, Liquid, Vibrating tube method

CCCCCCC(=O)OCC(COC(=O)CCCCCC)(COC(=O)CCCCCC)COC(=O)CCCCCC [pentaerythritol tetraheptanoate]
Settings | mass density [kg/m3]
18264 kPa | 967.6 ± 1.2
18279 kPa | 967.6 ± 1.2
18292 kPa | 967.7 ± 1.2
18304 kPa | 967.6 ± 1.2
18320 kPa | 967.6 ± 1.2
18332 kPa | 967.6 ± 1.2
18347 kPa | 967.6 ± 1.2
18360 kPa | 967.7 ± 1.2
18373 kPa | 967.7 ± 1.2
18385 kPa | 967.8 ± 1.2
18401 kPa | 967.7 ± 1.2
18413 kPa | 967.8 ± 1.2
18426 kPa | 967.6 ± 1.2
18442 kPa | 967.8 ± 1.2
18454 kPa | 967.7 ± 1.2
18469 kPa | 967.7 ± 1.2
18482 kPa | 967.7 ± 1.2
18495 kPa | 967.7 ± 1.2
18511 kPa | 967.7 ± 1.2
18920 kPa | 967.9 ± 1.2
18933 kPa | 968 ± 1.2
18964 kPa | 968.1 ± 1.2
19110 kPa | 968.3 ± 1.2
19518 kPa | 968.3 ± 1.2
19532 kPa | 968.3 ± 1.2
19550 kPa | 968.4 ± 1.2
19962 kPa | 968.7 ± 1.2
20010 kPa | 968.7 ± 1.2
20615 kPa | 969.1 ± 1.2
20951 kPa | 969.3 ± 1.2
20968 kPa | 969.2 ± 1.2
21002 kPa | 969.4 ± 1.2
21114 kPa | 969.2 ± 1.2
21149 kPa | 969.4 ± 1.2
21166 kPa | 969.4 ± 1.2
21187 kPa | 969.4 ± 1.2
21204 kPa | 969.5 ± 1.2
21222 kPa | 969.3 ± 1.2
21243 kPa | 969.4 ± 1.2
21261 kPa | 969.4 ± 1.2
21812 kPa | 969.9 ± 1.2
21889 kPa | 969.8 ± 1.2
21912 kPa | 969.9 ± 1.2
22010 kPa | 969.9 ± 1.2
22028 kPa | 970 ± 1.2
22051 kPa | 969.9 ± 1.2
22255 kPa | 970 ± 1.2
22294 kPa | 970.1 ± 1.2
22673 kPa | 970.3 ± 1.2
22693 kPa | 970.2 ± 1.2
22738 kPa | 970.5 ± 1.2
22934 kPa | 970.5 ± 1.2
22955 kPa | 970.5 ± 1.2
22976 kPa | 970.5 ± 1.2
23001 kPa | 970.4 ± 1.2
23022 kPa | 970.6 ± 1.2
23064 kPa | 970.5 ± 1.2
23111 kPa | 970.6 ± 1.2
23132 kPa | 970.6 ± 1.2
23157 kPa | 970.6 ± 1.2
23178 kPa | 970.5 ± 1.2
23200 kPa | 970.6 ± 1.2
23225 kPa | 970.5 ± 1.2
23246 kPa | 970.5 ± 1.2
23268 kPa | 970.7 ± 1.2
23294 kPa | 970.7 ± 1.2
23315 kPa | 970.7 ± 1.2
23358 kPa | 970.7 ± 1.2
23384 kPa | 970.8 ± 1.2
23431 kPa | 970.8 ± 1.2
23453 kPa | 970.8 ± 1.2
23474 kPa | 970.7 ± 1.2
23496 kPa | 970.9 ± 1.2
23522 kPa | 970.8 ± 1.2
23544 kPa | 970.8 ± 1.2
23566 kPa | 970.8 ± 1.2
23592 kPa | 970.8 ± 1.2
23614 kPa | 970.8 ± 1.2
23755 kPa | 971 ± 1.2
23777 kPa | 970.9 ± 1.2
23805 kPa | 971.1 ± 1.2
23827 kPa | 971 ± 1.2
23853 kPa | 970.9 ± 1.2
23875 kPa | 971 ± 1.2
23898 kPa | 971.1 ± 1.2
23921 kPa | 971 ± 1.2
23948 kPa | 971 ± 1.2
24439 kPa | 971.4 ± 1.2
24490 kPa | 971.3 ± 1.2
24592 kPa | 971.5 ± 1.2
24645 kPa | 971.6 ± 1.2
24693 kPa | 971.5 ± 1.2
24722 kPa | 971.5 ± 1.2
24746 kPa | 971.5 ± 1.2
24799 kPa | 971.6 ± 1.2
24824 kPa | 971.6 ± 1.2
24848 kPa | 971.6 ± 1.2
24874 kPa | 971.5 ± 1.2
24903 kPa | 971.6 ± 1.2
24928 kPa | 971.6 ± 1.2
24957 kPa | 971.7 ± 1.2
24981 kPa | 971.5 ± 1.2
25006 kPa | 971.7 ± 1.2
25031 kPa | 971.8 ± 1.2
25061 kPa | 971.7 ± 1.2
25387 kPa | 971.9 ± 1.2
25413 kPa | 972 ± 1.2
25633 kPa | 972.1 ± 1.2
25717 kPa | 972 ± 1.2
25828 kPa | 972 ± 1.2
25860 kPa | 972.3 ± 1.2
25888 kPa | 972.3 ± 1.2
